Laboratory results reported in ChEMBL document CHEMBL1133337, “Synthesis and transfection properties of novel non-toxic monocationic lipids. Variation of lipid anchor, spacer and head group structure” (2000).

Key:
Format in all cases: functional, Cercopithecidae
COS-7 [1] = assay: Transfection efficiency when the compound/DNA charge ratio was 11:1
COS-7 [2] = assay: Transfection efficiency when the compound/DNA charge ratio was 13:1
COS-7 [3] = assay: Transfection efficiency when the compound/DNA charge ratio was 15:1
COS-7 [4] = assay: Transfection efficiency when the compound/DNA charge ratio was 1:1
COS-7 [5] = assay: Transfection efficiency when the compound/DNA charge ratio was 3:1
COS-7 [6] = assay: Transfection efficiency when the compound/DNA charge ratio was 5:1
COS-7 [7] = assay: Transfection efficiency when the compound/DNA charge ratio was 9:1
COS-7 [8] = assay: Transfection efficiency when the compound/DNA charge ratio was 7:1

Structure (SMILES)	Transfection efficiency (COS-7 [1])	Transfection efficiency (COS-7 [2])	Transfection efficiency (COS-7 [3])	Transfection efficiency (COS-7 [4])	Transfection efficiency (COS-7 [5])	Transfection efficiency (COS-7 [6])	Transfection efficiency (COS-7 [7])	Transfection efficiency (COS-7 [8])
CC(C)CCCC(C)[C@H]1CC[C@H]2C3CC=C4C[C@@H](OC(=O)CCC(=O)NCCCN(C)C)CCC4(C)[C@H]3CCC12C (stereo partly specified)	8800 RLU (ug of protein)-1	7900 RLU (ug of protein)-1	8000 RLU (ug of protein)-1	12800 RLU (ug of protein)-1	37300 RLU (ug of protein)-1	22500 RLU (ug of protein)-1	9800 RLU (ug of protein)-1	14800 RLU (ug of protein)-1
CC(C)CCCC(C)[C@H]1CC[C@H]2C3CC=C4C[C@@H](OC(=O)C[N+](C)(C)C)CCC4(C)[C@H]3CCC12C (stereo partly specified)	2800 RLU (ug of protein)-1	2000 RLU (ug of protein)-1	1700 RLU (ug of protein)-1	17000 RLU (ug of protein)-1	86600 RLU (ug of protein)-1	20100 RLU (ug of protein)-1	4300 RLU (ug of protein)-1	5300 RLU (ug of protein)-1
CC(C)CCCC(C)[C@H]1CC[C@H]2C3CC=C4C[C@@H](OC(=O)CCC(=O)NCCN(C)C)CCC4(C)[C@H]3CCC12C (stereo partly specified)	75400 RLU (ug of protein)-1	54300 RLU (ug of protein)-1	36500 RLU (ug of protein)-1	17000 RLU (ug of protein)-1	41100 RLU (ug of protein)-1	94100 RLU (ug of protein)-1	98100 RLU (ug of protein)-1	108900 RLU (ug of protein)-1
CC(C)CCCC(C)[C@H]1CC[C@H]2C3CC=C4C[C@@H](OC(=O)C[N+](C)(C)CCO)CCC4(C)[C@H]3CCC12C (stereo partly specified)	31100 RLU (ug of protein)-1	30000 RLU (ug of protein)-1	31000 RLU (ug of protein)-1	4300 RLU (ug of protein)-1	4800 RLU (ug of protein)-1	18500 RLU (ug of protein)-1	29600 RLU (ug of protein)-1	26500 RLU (ug of protein)-1
CC(C)CCCC(C)[C@H]1CC[C@H]2C3CC=C4C[C@@H](OC(=O)OCC[N+](C)(C)CCO)CCC4(C)[C@H]3CCC12C (stereo partly specified)	8100 RLU (ug of protein)-1	5000 RLU (ug of protein)-1	5300 RLU (ug of protein)-1	17300 RLU (ug of protein)-1	83200 RLU (ug of protein)-1	25500 RLU (ug of protein)-1	8700 RLU (ug of protein)-1	10500 RLU (ug of protein)-1
CCCCCCCCCCCCCCOCC(COC(=O)C[N+](C)(C)C)OCCCCCCCCCCCCCC (stereo unspecified)	18700 RLU (ug of protein)-1	29400 RLU (ug of protein)-1	31400 RLU (ug of protein)-1	4200 RLU (ug of protein)-1	4100 RLU (ug of protein)-1	10000 RLU (ug of protein)-1	17700 RLU (ug of protein)-1	15100 RLU (ug of protein)-1
CC(C)CCCC(C)[C@H]1CC[C@H]2C3CC=C4C[C@@H](OC(=O)CCC(=O)OCCCN(C)C)CCC4(C)[C@H]3CCC12C (stereo partly specified)	6000 RLU (ug of protein)-1	6100 RLU (ug of protein)-1	4700 RLU (ug of protein)-1	8000 RLU (ug of protein)-1	9200 RLU (ug of protein)-1	9200 RLU (ug of protein)-1	9100 RLU (ug of protein)-1	8900 RLU (ug of protein)-1
CC(C)CCCC(C)[C@H]1CC[C@H]2C3CC=C4C[C@@H](OC(=O)CCC(=O)OCCN(C)C)CCC4(C)[C@H]3CCC12C (stereo partly specified)	7500 RLU (ug of protein)-1	7200 RLU (ug of protein)-1	6700 RLU (ug of protein)-1	14000 RLU (ug of protein)-1	27000 RLU (ug of protein)-1	12200 RLU (ug of protein)-1	9600 RLU (ug of protein)-1	10600 RLU (ug of protein)-1
CC(C)CCCC(C)[C@H]1CC[C@H]2C3CC=C4C[C@@H](OC(=O)CN(C)C)CCC4(C)[C@H]3CCC12C (stereo partly specified)	3100 RLU (ug of protein)-1	2100 RLU (ug of protein)-1	3400 RLU (ug of protein)-1	6900 RLU (ug of protein)-1	4000 RLU (ug of protein)-1	1500 RLU (ug of protein)-1	2000 RLU (ug of protein)-1	1700 RLU (ug of protein)-1
CCCCCCCCCCCCCCOCC(COC(=O)CN(C)C)OCCCCCCCCCCCCCC (stereo unspecified)	1000 RLU (ug of protein)-1	2500 RLU (ug of protein)-1	600 RLU (ug of protein)-1	3300 RLU (ug of protein)-1	8000 RLU (ug of protein)-1	5500 RLU (ug of protein)-1	1700 RLU (ug of protein)-1	600 RLU (ug of protein)-1
CC(C)CCCC(C)[C@H]1CC[C@H]2C3CC=C4C[C@@H](OC(=O)OCCN(C)C)CCC4(C)[C@H]3CCC12C (stereo partly specified)	15200 RLU (ug of protein)-1	10900 RLU (ug of protein)-1	7400 RLU (ug of protein)-1	40500 RLU (ug of protein)-1	93000 RLU (ug of protein)-1	76600 RLU (ug of protein)-1	24800 RLU (ug of protein)-1	41800 RLU (ug of protein)-1
CC(C)CCCC(C)[C@H]1CC[C@H]2C3CC=C4C[C@@H](OC(=O)OCC[N+](C)(C)C)CCC4(C)[C@H]3CCC12C (stereo partly specified)	3600 RLU (ug of protein)-1	2200 RLU (ug of protein)-1	2000 RLU (ug of protein)-1	48500 RLU (ug of protein)-1	97200 RLU (ug of protein)-1	77200 RLU (ug of protein)-1	11400 RLU (ug of protein)-1	45400 RLU (ug of protein)-1
